Reference: patent publication US20210388015A1, “GLUCOPYRANOSE DERIVATIVES USEFUL AS SGLT2 INHIBITORS” (Janssen Pharmaceutica NV, priority 2018, published 2021)
Where a name gives a salt, the structure may show the parent alone. Read-outs that look alike come from different tables or passages of the source.

Columns and labels:
human SGLT2 = molecular target: T1, human SGLT2 (Homo sapiens, UniProt P31639); test: SGLT2 inhibition assay, 14C-AMG uptake in CHO-K1 cells stably expressing human SGLT2; type: cell-based
T1 construct: expressed in transfected cells; host or cells: CHO-K1
T1 sequence (P31639 1-672): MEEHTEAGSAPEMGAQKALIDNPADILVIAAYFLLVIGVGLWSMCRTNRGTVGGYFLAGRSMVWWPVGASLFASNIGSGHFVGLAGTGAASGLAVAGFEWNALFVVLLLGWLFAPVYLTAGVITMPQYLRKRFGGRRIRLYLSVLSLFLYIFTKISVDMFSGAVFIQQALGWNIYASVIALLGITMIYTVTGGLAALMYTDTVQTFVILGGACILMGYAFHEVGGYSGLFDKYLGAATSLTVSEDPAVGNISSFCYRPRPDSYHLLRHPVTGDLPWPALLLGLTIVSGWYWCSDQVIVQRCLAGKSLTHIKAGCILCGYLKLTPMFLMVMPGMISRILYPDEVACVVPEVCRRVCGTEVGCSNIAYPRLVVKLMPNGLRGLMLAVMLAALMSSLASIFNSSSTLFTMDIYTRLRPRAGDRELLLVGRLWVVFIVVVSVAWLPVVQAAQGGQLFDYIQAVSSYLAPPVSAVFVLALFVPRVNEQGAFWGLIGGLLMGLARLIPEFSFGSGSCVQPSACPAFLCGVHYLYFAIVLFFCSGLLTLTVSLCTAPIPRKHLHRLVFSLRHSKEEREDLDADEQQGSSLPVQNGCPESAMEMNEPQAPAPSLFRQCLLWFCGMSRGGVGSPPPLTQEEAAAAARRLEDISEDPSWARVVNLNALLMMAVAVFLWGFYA
Protocol: (§1) The cells were incubated for 24 hours. […] Plates were counted in a TopCount (Packard, Meriden, Conn.). Each experiment was repeated at least twice.
(§2) Results are reported as the %-inhibition or IC50 value.

human SGLT1 = molecular target: T2, human SGLT1 (Homo sapiens, UniProt P13866); test: SGLT1 inhibition assay, 14C-AMG uptake in CHO-K1 cells stably expressing human SGLT1; type: cell-based
T2 construct: expressed in transfected cells; host or cells: CHO-K1
T2 sequence (P13866 1-664): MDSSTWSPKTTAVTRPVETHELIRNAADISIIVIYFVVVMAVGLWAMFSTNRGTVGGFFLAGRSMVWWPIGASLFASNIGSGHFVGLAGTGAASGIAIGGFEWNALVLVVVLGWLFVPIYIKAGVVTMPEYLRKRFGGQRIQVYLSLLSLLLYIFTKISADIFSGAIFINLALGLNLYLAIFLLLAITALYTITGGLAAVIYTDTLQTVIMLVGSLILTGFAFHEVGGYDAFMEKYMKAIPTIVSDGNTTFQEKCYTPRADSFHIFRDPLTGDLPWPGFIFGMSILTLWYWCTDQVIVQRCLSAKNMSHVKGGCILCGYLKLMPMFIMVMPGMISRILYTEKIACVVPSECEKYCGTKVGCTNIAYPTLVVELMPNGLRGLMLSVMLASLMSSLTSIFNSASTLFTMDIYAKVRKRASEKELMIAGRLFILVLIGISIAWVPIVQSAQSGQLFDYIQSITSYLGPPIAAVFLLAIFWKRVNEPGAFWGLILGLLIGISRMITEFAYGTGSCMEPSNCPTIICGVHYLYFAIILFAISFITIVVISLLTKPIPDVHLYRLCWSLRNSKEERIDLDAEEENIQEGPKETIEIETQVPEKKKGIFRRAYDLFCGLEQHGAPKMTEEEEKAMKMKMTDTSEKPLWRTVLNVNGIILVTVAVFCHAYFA
Protocol: as §1, §2

[1] = CHO-K1, CHO-K1 cells, 1 μM test compound, read-out: CHO-K1 Cells SGLT1 % Inh @1 μM

IC50 (human SGLT2) [nM] | Compound | further results
20.8 | OC[C@H]1O[C@@H](c2ccc(Cl)c(Cc3ccc(OCCOCCOCCOc4ccc(Cc5cc([C@@H]6O[C@H](CO)[C@@H](O)[C@H](O)[C@H]6O)ccc5Cl)cc4)cc3)c2)[C@H](O)[C@@H](O)[C@@H]1O [Compound 11] | 
9.6 | OC[C@H]1O[C@@H](c2ccc(Cl)c(Cc3ccc(OCCOCCOCCOCCOc4ccc(Cc5cc([C@@H]6O[C@H](CO)[C@@H](O)[C@H](O)[C@H]6O)ccc5Cl)cc4)cc3)c2)[C@H](O)[C@@H](O)[C@@H]1O [Compound 12] | 

The remaining lines, values behind:

Compound | IC50 (human SGLT2) [nM] | further results
O=C(O)C(CCC(Oc1ccc(Cc2cc([C@@H]3O[C@H](CO)[C@@H](O)[C@H](O)[C@H]3O)ccc2Cl)cc1)C(=O)O)Oc1ccc(Cc2cc([C@@H]3O[C@H](CO)[C@@H](O)[C@H](O)[C@H]3O)ccc2Cl)cc1 (mixture of isomers) [Compound 18] | 377 | 
OC[C@H]1O[C@H](c2ccc(Cl)c(Cc3ccc(OCc4cc(COc5ccc(Cc6cc([C@@H]7O[C@H](CO)[C@@H](O)[C@H](O)[C@H]7O)ccc6Cl)cc5)c(COc5ccc(Cc6cc([C@@H]7O[C@H](CO)[C@@H](O)[C@H](O)[C@H]7O)ccc6Cl)cc5)cc4COc4ccc(Cc5cc([C@@H]6O[C@H](CO)[C@@H](O)[C@H](O)[C@H]6O)ccc5Cl)cc4)cc3)c2)[C@H](O)[C@@H](O)[C@@H]1O [(III), (2R,2′R,2″R,3S,3′S,3″S,4R,4′R,4″R,5R,5′R,5″R,6S,6′S,6″S)-6,6′,6″-((((((5-((4-(2-chloro-5-((2R,3R,4R,5S,6R)-3,4,5-trihydroxy-6-(hydroxymethyl)tetrahydro-2H-pyran-2-yl)benzyl)phenoxy)methyl)benzene-1,2,4-triyl)tris(methylene))tris(oxy))tris(benzene-4,1-diyl))tris(methylene))tris(4-chlorobenzene-3,1-diyl))tris(2-(hydroxymethyl)tetrahydro-2H-pyran-3,4,5-triol)] | 33 | 
COCCOCCOCCOCCOc1ccc(Cc2cc([C@@H]3O[C@H](CO)[C@@H](O)[C@H](O)[C@H]3O)ccc2Cl)cc1 [Compound 1] |  | inhibition at 1 µM (human SGLT1; [1]): 14.5%
O=S(=O)(O)CCCOc1ccc(Cc2cc([C@@H]3O[C@H](CO)[C@@H](O)[C@H](O)[C@H]3O)ccc2Cl)cc1 [Compound 2, 3-(4-(2-chloro-5-((2S,3R,4R,5S,6R)-3,4,5-trihydroxy-6-(hydroxymethyl)tetrahydro-2H-pyran-2-yl)benzyl)phenoxy)propane-1-sulfonic acid] |  | inhibition at 1 µM (human SGLT1; [1]): 20%
C[N+]1(CCCCCOc2ccc(Cc3cc([C@@H]4O[C@H](CO)[C@@H](O)[C@H](O)[C@H]4O)ccc3Cl)cc2)CCCC1 [Compound 6, 1-(5-(4-(2-chloro-5-((2S,3R,4R,5S,6R)-3,4,5-trihydroxy-6-(hydroxymethyl)tetrahydro-2H-pyran-2-yl)benzyl)phenoxy)pentyl)-1-methylpyrrolidin-1-ium trifluoroacetate] |  | inhibition at 1 µM (human SGLT1; [1]): 43.1%
C[N+]1(CCOCCOc2ccc(Cc3cc([C@@H]4O[C@H](CO)[C@@H](O)[C@H](O)[C@H]4O)ccc3Cl)cc2)CCCC1 [Compound 7] |  | inhibition at 1 µM (human SGLT1; [1]): 17.5%
OC[C@H]1O[C@@H](c2ccc(Cl)c(Cc3ccc(OCCOCCOc4ccc(Cc5cc([C@@H]6O[C@H](CO)[C@@H](O)[C@H](O)[C@H]6O)ccc5Cl)cc4)cc3)c2)[C@H](O)[C@@H](O)[C@@H]1O [Compound 10, (2R,2′R,3S,3′S,4R,4′R,5R,5′R,6S,6′S)-6,6′-(((((oxybis(ethane-2,1-diyl))bis(oxy))bis(4,1-phenylene))bis(methylene))bis(4-chloro-3,1-phenylene))bis(2-(hydroxymethyl)tetrahydro-2H-pyran-3,4,5-triol)] | 7.6 | IC50 (human SGLT1; CHO-K1 cells, IC50 printed in the % Inh column): 1490 nM
OC[C@H]1O[C@@H](c2ccc(Cl)c(Cc3ccc(OCc4ccc(COc5ccc(Cc6cc([C@@H]7O[C@H](CO)[C@@H](O)[C@H](O)[C@H]7O)ccc6Cl)cc5)cc4)cc3)c2)[C@H](O)[C@@H](O)[C@@H]1O [Compound 13] | 32 | 
OC[C@H]1O[C@@H](c2ccc(Cl)c(Cc3ccc(OCc4ccc(COc5ccc(Cc6cc([C@@H]7O[C@H](CO)[C@@H](O)[C@H](O)[C@H]7O)ccc6Cl)cc5)nc4)cc3)c2)[C@H](O)[C@@H](O)[C@@H]1O [Compound 14, (2R,2′R,3S,3′S,4R,4′R,5R,5′R,6S,6′S)-6,6′-(((((pyridine-2,5-diylbis(methylene))bis(oxy))bis(4,1-phenylene))bis(methylene))bis(4-chloro-3,1-phenylene))bis(2-(hydroxymethyl)tetrahydro-2H-pyran-3,4,5-triol) trifluoroacetate] | 4.8 | inhibition at 1 µM (human SGLT1; CHO-K1, read-out: CHO-K1 Cells SGLT1 % Inh @1 μM): 19%
C[N+](C)(CCOc1ccc(Cc2cc([C@@H]3O[C@H](CO)[C@@H](O)[C@H](O)[C@H]3O)ccc2Cl)cc1)CCOc1ccc(Cc2cc([C@@H]3O[C@H](CO)[C@@H](O)[C@H](O)[C@H]3O)ccc2Cl)cc1 [Compound 15, trifluoroacetate] | 121 | 
C[N+]1(Cc2ccc(COc3ccc(Cc4cc([C@@H]5O[C@H](CO)[C@@H](O)[C@H](O)[C@H]5O)ccc4Cl)cc3)cc2)CCC(C2CC[N+](C)(Cc3ccc(COc4ccc(Cc5cc([C@@H]6O[C@H](CO)[C@@H](O)[C@H](O)[C@H]6O)ccc5Cl)cc4)cc3)CC2)CC1 (stereo partly drawn) [Compound 16, 1,1′-bis(4-((4-(2-chloro-5-((2S,3R,4R,5S,6R)-3,4,5-trihydroxy-6-(hydroxymethyl)tetrahydro-2H-pyran-2-yl)benzyl)phenoxy)methyl)benzyl)-1,1′-dimethyl-[4,4′-bipiperidine]-1,1′-diium trifluoroacetate] | 4 | 
C[N+]1(Cc2ccc(COc3ccc(Cc4cc([C@@H]5O[C@H](CO)[C@@H](O)[C@H](O)[C@H]5O)ccc4Cl)cc3)cc2)CCC(CCC2CC[N+](C)(Cc3ccc(COc4ccc(Cc5cc([C@@H]6O[C@H](CO)[C@@H](O)[C@H](O)[C@H]6O)ccc5Cl)cc4)cc3)CC2)CC1 (stereo partly drawn) [Compound 17, 4,4′-(ethane-1,2-diyl)bis(1-(4-((4-(2-chloro-5-((2S,3R,4R,5S,6R)-3,4,5-trihydroxy-6-(hydroxymethyl)tetrahydro-2H-pyran-2-yl)benzyl)phenoxy)methyl)benzyl)-1-methylpiperidin-1-ium) trifluoroacetate] | 5 | 
C[N+](C)(CCCc1ccc(-c2ccc(Cc3cc([C@@H]4O[C@H](CO)[C@@H](O)[C@H](O)[C@H]4O)ccc3Cl)s2)cc1)CCOc1ccc(-c2ccc(Cc3cc([C@@H]4O[C@H](CO)[C@@H](O)[C@H](O)[C@H]4O)ccc3Cl)s2)cc1 [Compound 19, N-(2-(4-(5-(2-chloro-5-((2S,3R,4R,5S,6R)-3,4,5-trihydroxy-6-(hydroxymethyl)tetrahydro-2H-pyran-2-yl)benzyl)thiophen-2-yl)phenoxy)ethyl)-3-(4-(5-(2-chloro-5-((2S,3R,4R,5S,6R)-3,4,5-trihydroxy-6-(hydroxymethyl)tetrahydro-2H-pyran-2-yl)benzyl)thiophen-2-yl)phenyl)-N,N-dimethylpropan-1-aminium trifluoroacetate] | 24 | 
